Results as given in patent US10987360B2, “Hepatitis B core protein modulators” (Assembly Biosciences, Inc., priority 2016, dated 2021).
Read-outs that look alike come from different tables or passages of the source.

Experiments:
[1] = tested on: HBV viral load in AD38 cells; test: Viral load production in AD38 cells, quantitative PCR of the core sequence in supernatant; format: cell-based; details: 6 days incubation; for activity at 10 µM: Hepatitis B virus, 144 h
Procedure: (§1) Assay Measuring Activity of Compounds on Viral Production in and on Viability of AD38 Cells
(§2) AD38 cells grown in a 175 cm flask with “Growth Medium” (DMEM/F12 (1:1) (cat #SH30023.01, Hyclone, 1×Pen/step (cat #: 30-002-CL, Mediatech, Inc), 10% FBS (cat #: 101, Tissue Culture Biologics), 250 μg/mL G418 (cat #: 30-234-CR, Mediatech, Inc), 1 μg/mL Tetracycline (cat #: T3325, Teknova)) were detached with 0.25% trypsin. Tetracycline-free “treatment medium” (15 mL DMEM/F12 (1:1) (cat #SH30023.01, Hyclone, 1×Pen/step (cat #: 30-002-CL, Mediatech, Inc), with 2% FBS, Tet-system approved (cat #: 631106, Clontech) were then added to mix and spun at 1300 rpm for 5 min. Pelleted cells were then re-suspended/washed with 50 mL of 1×PBS 2 times and 10 mL Treatment Medium one time. AD38 cells were then re-suspended with 10 mL of Treatment Medium and counted. Wells of a collagen coated 96-well NUNC microtiter plate were seeded at 50,000/well in 180 μL of Treatment Medium, and 20 μL of in treatment media with either 10% DMSO (Control) or a 10× solution of compound in 10% DMSO was added. Plates were incubated for 6 days at 37° C.
Viral load production was assayed by quantitative PCR of the core sequence. Briefly, 5 μL of clarified supernatant was added to a PCR reaction mixture that contained forward primers HBV-f 5′-CTGTGCCTTGGGTGGCTTT-3′, Reverse primers HBV-r 5′-[…]-3′ and Fluorescent TaqMan™ Probes HBV-probe 5′-FAM/AGCTCCAAA/ZEN/[…]/3IABkFQ-3′ in Quanta Biosciences PerfeCTa® qPCR Toughmix®, and was subsequently on an Applied Biosystems VIIA7 in a final volume of 20 μL. The PCR mixture was incubated at 45° C. for 5 minutes, then 95° C. for 10 min, followed by 40 cycles of 10 seconds at 95° C. and 20 seconds at 60° C. Viral load was quantitated against known standards by using ViiA™ 7 Software. Viral load in the supernatant from wells with treated cells were compared against viral load in supernatant from DMSO control wells (≥3 per plate).

AD38 cells = test: Viability of AD38 cells, Promega CellTiter-Glo; format: cell-based; details: 6 days incubation, controls being 100%; for AD38 Viability Normalized Result (CPAM/DMSO %) at 10 μM: Table 6, compounds of Group 4
Procedure: as §1, §2
At the end of compound treatment period cell viability was assessed using a Promega CellTiter-Glo protocol. All supernatant was removed the previously treated 96-well microtiter plate, and 50 μL Tetracycline-free treatment medium (DMEM/F12 (1:1), 1×Pen/step (cat #: 30-002-CL, Mediatech, Inc), with 2% FBS, Tet-system approved (cat #: 631106, Clontech), and 1% DMSO was added back to each well. Another 50 μL of CellTiter-Glo reagent solution (Promega, G7573) was then added at room temperature and the contents mixed for 2 minutes on an orbital shaker to induce cell lysis. This was followed by incubation at room temperature for 10 minutes to stabilize the luminescent signal. The luminescence was recorded for 0.2 seconds per well on a Tecan multimode platereader (Infinite M1000 pro). The luminescent signal from each well was normalized against that of untreated (DMSO) control wells. All results in Tables 3-6 were reported with percent viability (with controls being 100%).

[2] = Table 6, compounds of Group 4, read-out: AD38 Viral Load (CpAM/DMSO %) at 10 μM
[3] = Table 4, compounds of Group 2, read-out: AD38 Viral Load (%) (VL with cmpd/VL in DMSO control) at 10 μM
[4] = Table 3, compounds of Group 1, read-out: AD38 Viral Load (%) (VL with cmpd/VL in DMSO control) at 10 μM

## ten-butyl (2-(4-(5-((5,5-dioxido-11-oxo-10,11-dihydrodibenzo[b,f][1,4]thiazepine-8-carboxamido) methyl) thiazol-2-yl) piperidin-1-yl)-2-oxoethyl) (methyl) carbamate [Compound 1035-A]
[1]; Table 3, compounds of Group 1
  AD38 Viral Load (%) (VL with cmpd/VL in DMSO control) at 10 μM: 57.8%
AD38 cells; Table 3, compounds of Group 1
  AD38 Viability Normalized Result (cmpd/DMSO %) at 10 μM: 102%

## Cc1cc(=O)[nH]c2cc(C(=O)NCc3cnc(C(F)(F)F)s3)ccc12 [Compound C2-01, 4-Methyl-2-oxo-N-((2-(trifluoromethyl)thiazol-5-yl)methyl)-1,2-dihydroquinoline-7-carboxamide]
[1]; [2]
  activity at 10 µM: 69.7%
AD38 cells
  AD38 Viability Normalized Result (CPAM/DMSO %) at 10 μM: 113%

## O=C(NCc1cnc(-n2cccn2)s1)c1ccc2c(c1)NC(=O)[C@H]1CCCCN1S2(=O)=O (single isomer, unassigned) [C25-04-Isomer II]
[1]; [3]
  activity at 10 µM: 1.7%
AD38 cells; Table 4, compounds of Group 2
  AD38 Viability Normalized Result (cmpd/DMSO %) at 10 μM: 99%

## O=C1CCC(c2ncc(CNC(=O)c3ccc4c(c3)NC(=O)c3ccccc3S4(=O)=O)s2)CC1 [Compound 818, 11-oxo-N-((2-(4-oxocyclohexyl)thiazol-5-yl)methyl)-10,11-dihydrodibenzo[b,f][1,4]thiazepine-8-carboxamide 5,5-dioxide]
[1]; [4]
  activity at 10 µM: 1.3%
AD38 cells; Table 3, compounds of Group 1
  AD38 Viability Normalized Result (cmpd/DMSO %) at 10 μM: 84%

## Cl.NC1CCC(Cc2ncc(CNC(=O)c3ccc4c(c3)NC(=O)c3ccccc3S4(=O)=O)s2)CC1 (stereo not drawn) [Compound 884, N-((2-((4-aminocyclohexyl)methyl)thiazol-5-yl)methyl)-11-oxo-10,11-dihydrodibenzo[b,f][1,4]thiazepine-8-carboxamide 5,5-dioxide hydrochloride]
[1]; [4]
  activity at 10 µM: 15.1%
AD38 cells; Table 3, compounds of Group 1
  AD38 Viability Normalized Result (cmpd/DMSO %) at 10 μM: 94%

## O=C1CCC(c2ncc(CNC(=O)c3ccc4c(c3)NC(=O)c3ccccc3S4(=O)=O)s2)C1 (stereo not drawn) [Compound 980-A, 11-oxo-N-((2-(3-oxocyclopentyl)thiazol-5-yl)methyl)-10,11-dihydrodibenzo[b,f][1,4]thiazepine-8-carboxamide 5,5-dioxide]
[1]; [4]
  activity at 10 µM: 1.2%
AD38 cells; Table 3, compounds of Group 1
  AD38 Viability Normalized Result (cmpd/DMSO %) at 10 μM: 97%

## O=C(NCc1cnc(C(F)(F)F)s1)c1ccc2c(c1)NC(=O)c1ccncc1S2(=O)=O [Compound 1020]
[1]; [3]
  activity at 10 µM: 6.1%
AD38 cells; Table 4, compounds of Group 2
  AD38 Viability Normalized Result (cmpd/DMSO %) at 10 μM: 97%

## CC(C)c1cc(=O)[nH]c2cc(C(=O)NCc3cnc(C(F)(F)F)s3)ccc12 [Compound C3-01, 4-Isopropyl-2-oxo-N-((2-(trifluoromethyl)thiazol-5-yl)methyl)-1,2-dihydroquinoline-7-carboxamide]
[1]; [2]
  activity at 10 µM: 44.6%
AD38 cells
  AD38 Viability Normalized Result (CPAM/DMSO %) at 10 μM: 105%

## CC1=C(C)C(=O)Nc2cc(C(=O)NCc3cnc(C(F)(F)F)s3)ccc2O1 [Compound C1-01]
[1]; [3]
  activity at 10 µM: 27.9%
AD38 cells; Table 4, compounds of Group 2
  AD38 Viability Normalized Result (cmpd/DMSO %) at 10 μM: 106%

## O=C(NCc1cnc(C2CCC(O)CC2)s1)c1ccc2c(c1)NC(=O)c1ccccc1S2(=O)=O (stereo not drawn) [Compound 924, N-((2-(4-hydroxycyclohexyl)thiazol-5-yl)methyl)-11-oxo-10,11-dihydrodibenzo[b,f][1,4]thiazepine-8-carboxamide 5,5-dioxide]
[1]; [4]
  activity at 10 µM: 0.7%
AD38 cells; Table 3, compounds of Group 1
  AD38 Viability Normalized Result (cmpd/DMSO %) at 10 μM: 95%

## O=C(NCc1cnc(-c2ccc(O)cc2)s1)c1ccc2c(c1)NC(=O)c1ccncc1S2 [Compound 762]
[1]; [3]
  activity at 10 µM: 45.6%
AD38 cells; Table 4, compounds of Group 2
  AD38 Viability Normalized Result (cmpd/DMSO %) at 10 μM: 102%

## N#Cc1ccc(-c2ncc(CNC(=O)c3ccc4c(c3)NC(=O)[C@@H]3CCCCN3S4(=O)=O)s2)c(F)c1 (single isomer, unassigned) [C25-02-Isomer I]
[1]; [3]
  activity at 10 µM: 3%
AD38 cells; Table 4, compounds of Group 2
  AD38 Viability Normalized Result (cmpd/DMSO %) at 10 μM: 108%

## N#Cc1ccc(-c2ncc(CNC(=O)c3ccc4c(c3)NC(=O)C3CCCN3S4(=O)=O)s2)c(F)c1 (stereo not drawn) [Compound C24-02]
[1]; [3]
  activity at 10 µM: 43%
AD38 cells; Table 4, compounds of Group 2
  AD38 Viability Normalized Result (cmpd/DMSO %) at 10 μM: 100%

## CC1=C(C)C(=O)Nc2cc(C(=O)NCc3cnc(-c4ccc(C#N)cc4F)s3)ccc2S1 [Compound C12-02]
[1]; [3]
  activity at 10 µM: 21.4%
AD38 cells; Table 4, compounds of Group 2
  AD38 Viability Normalized Result (cmpd/DMSO %) at 10 μM: 99%

## O=C(NCc1cnc(-n2cccn2)s1)c1ccc2c(c1)NC(=O)C1CCCN1S2(=O)=O (stereo not drawn) [Compound C24-04]
[1]; [3]
  activity at 10 µM: 7.7%
AD38 cells; Table 4, compounds of Group 2
  AD38 Viability Normalized Result (cmpd/DMSO %) at 10 μM: 104%

## CC1(C)CCC(c2ncc(CNC(=O)c3ccc4c(c3)NC(=O)c3ccccc3S4(=O)=O)s2)C1 (stereo not drawn) [Compound 979]
[1]; [4]
  activity at 10 µM: 0.5%
AD38 cells; Table 3, compounds of Group 1
  AD38 Viability Normalized Result (cmpd/DMSO %) at 10 μM: 59%

## CC(C)(C)OC(=O)N1CCC(c2ncc(CNC(=O)c3ccc4c(c3)NC(=O)c3ccccc3S4(=O)=O)s2)CC1 [Compound 926-A]
[1]; [4]
  activity at 10 µM: 3.6%
AD38 cells; Table 3, compounds of Group 1
  AD38 Viability Normalized Result (cmpd/DMSO %) at 10 μM: 98%

## N#Cc1ccc(-c2ncc(CNC(=O)c3ccc4c(c3)NC(=O)C3CCCCN3S4(=O)=O)s2)c(F)c1 (stereo not drawn) [Compound C25-02]
[1]; [3]
  activity at 10 µM: 0.5%
AD38 cells; Table 4, compounds of Group 2
  AD38 Viability Normalized Result (cmpd/DMSO %) at 10 μM: 95%

## CC1=C(C)S(=O)(=O)c2ccc(C(=O)NCc3cnc(C(F)(F)F)s3)cc2NC1=O [Compound C10-01]
[1]; [3]
  activity at 10 µM: 12.2%
AD38 cells; Table 4, compounds of Group 2
  AD38 Viability Normalized Result (cmpd/DMSO %) at 10 μM: 101%

## N#Cc1ccc(-c2ncc(CNC(=O)c3ccc4c(c3)NC(=O)C43CCCCC3)s2)c(F)c1 [Compound C6-02, N-((2-(4-Cyano-2-fluorophenyl)thiazol-5-yl)methyl)-2′-oxospiro[cyclohexane-1,3′-indoline]-6′-carboxamide]
[1]; [2]
  activity at 10 µM: 41.2%
AD38 cells
  AD38 Viability Normalized Result (CPAM/DMSO %) at 10 μM: 91%

## O=C(NCc1cnc(C(F)(F)F)s1)c1ccc2c(C3CCCCC3)c[nH]c2c1 [Compound C19-01, 3-Cyclohexyl-N-((2-(trifluoromethyl)thiazol-5-yl)methyl)-1H-indole-6-carboxamide]
[1]; [2]
  activity at 10 µM: 30.8%
AD38 cells
  AD38 Viability Normalized Result (CPAM/DMSO %) at 10 μM: 79%

## CC1=C(C)C(=O)Nc2cc(C(=O)NCc3cnc(C(F)(F)F)s3)ccc2S1 [Compound C12-01, 2,3-Dimethyl-4-oxo-N-((2-(trifluoromethyl)thiazol-5-yl)methyl)-4,5-dihydrobenzo[b][1,4]thiazepine-7-carboxamide]
[1]; [3]
  activity at 10 µM: 15.5%
AD38 cells; Table 4, compounds of Group 2
  AD38 Viability Normalized Result (cmpd/DMSO %) at 10 μM: 97%

## O=C(NCc1cnc(CN2CCOCC2)s1)c1ccc2c(c1)NC(=O)c1ccccc1S2(=O)=O [Compound 927]
[1]; [4]
  activity at 10 µM: 4.7%
AD38 cells; Table 3, compounds of Group 1
  AD38 Viability Normalized Result (cmpd/DMSO %) at 10 μM: 92%

## O=C(NCc1cnn(-c2nccs2)c1)c1ccc2c(c1)NC(=O)c1ccccc1S2(=O)=O [Compound 1155, 11-oxo-N-((1-(thiazol-2-yl)-1H-pyrazol-4-yl)methyl)-10,11-dihydrodibenzo[b, f][1,4]thiazepine-8-carboxamide 5,5-dioxide]
[1]; Table 5, compounds of Group 3, read-out: AD38 Viral Load (%) (VL with cmpd/VL in DMSO control) at 10 μM
  activity at 10 µM: 0.6%
AD38 cells; Table 5, compounds of Group 3
  AD38 Viability Normalized Result (cmpd/DMSO %) at 10 μM: 104%

## O=C(NCc1cnc(-n2cccn2)s1)c1ccc2c(c1)NC(=O)c1ccncc1S2(=O)=O [Compound C46-02]
[1]; [3]
  activity at 10 µM: 0.9%
AD38 cells; Table 4, compounds of Group 2
  AD38 Viability Normalized Result (cmpd/DMSO %) at 10 μM: 102%

## O=C(NCc1cnc(-n2cccn2)s1)c1ccc2c(c1)NC(=O)[C@@H]1CCCCN1S2(=O)=O (single isomer, unassigned) [C25-04-Isomer I]
[1]; [3]
  activity at 10 µM: 8.3%
AD38 cells; Table 4, compounds of Group 2
  AD38 Viability Normalized Result (cmpd/DMSO %) at 10 μM: 104%

## Cc1c[nH]c2cc(C(=O)NCc3cnc(C(F)(F)F)s3)ccc12 [Compound C14-01, 3-Methyl-N-((2-(trifluoromethyl)thiazol-5-yl)methyl)-1H-indole-6-carboxamide]
[1]; [2]
  activity at 10 µM: 63%
AD38 cells
  AD38 Viability Normalized Result (CPAM/DMSO %) at 10 μM: 113%
